Reference: patent publication US9808434B2, “Compound for treating cancer and diabetes” (CITY OF HOPE, priority 2011, dated 2017)

Columns and labels:
SK-Mel-5 = test: Colony formation assay, SK-Mel-5; assay type: cell-based, human; details: 5 μM
Description: (§1) Cell survival was evaluated using a standard colony-forming assay. In total, 1×10^5 cells/mL were incubated with COH-SR4 (1.5 μM or 5 μM) or elesclomol (5 μM) for 24 h, and aliquots of 50 or 100 μL were added to 60 mm size petri dishes, containing 4 mL culture medium. After 7 or 10 days, adherent colonies were fixed, stained with 0.5% methylene blue for 30 min and colonies were counted using the Innotech Alpha Imager HP (91).

GST = GST activity towards CDNB in melanoma cell supernatants; assay type: biochemical; details: B16-F0, Hs600T, A2058 supernatants; 1 mM GSH and CDNB
Description: GST activity towards 1-chloro 2,4-dinitro benzene (CDNB) and its inhibition by COH-SR4 was performed in 28000×g crude supernatant prepared from B16-F0, Hs600T and A2058 cells. Human liver purified GST was used as a control (inset). The inhibitory effect of COH-SR4 on GST was studied at a fixed concentration of GSH and CDNB (1 mM each) and varying concentrations of inhibitor. The enzymes were pre-incubated with the inhibitor for 5 min at 37° C. prior to the addition of the substrates. […] The ability of COH-SR4 to inhibit GST activity in melanomas represents a potential mechanism that contributes to decreased survival of melanoma cells following COH-SR4 treatment (FIG. 68A).

B16 mouse melanoma tumor = test: Western-blot of signaling proteins in B16 tumor tissue lysates; assay type: in vivo; details: band density ratio
Description: Western-blot analyses of signaling proteins in tumor tissue lysates in control and COH-SR4 treated groups were shown in FIG. 58. Crude fraction (about 50 μg) and WB with various antibodies were used.

H1417 cells = test: MTT assay, H1417; assay type: cell-based; details: Homo sapiens, NCI-H1417, 48 h
Description: (§2) Cell density measurements were performed using a hemocytometer to count reproductive cells resistant to staining with trypan blue. Approximately 20,000 cells were plated into each well of 96-well flat-bottomed micro-titer plates. After 12 h or 24 h incubation at 37° C., medium containing either COH-SR4 (ranging 0-200 μM) or elesclomol (ranging 0-20 μM) were added to the cells. After 24 h, 48 h or 96 h incubation, 20 μL of 5 mg/mL MTT were introduced to each well and incubated for 2 h. The plates were centrifuged and medium was decanted. Cells were subsequently dissolved in 100 μl DMSO with gentle shaking for 2 h at room temperature, followed by measurement of OD570 (91).
(§3) The effect of COH-SR4 was first examined in a NCI panel of cancer cell lines, the results of which indicated good activity of COH-SR4 towards lung cancer (FIG. 78A). […] Values are presented as mean±SD from two separate determinations with eight replicates each (n=16) (FIG. 78B). […] Standard colony-forming assay was performed and the colonies were counted using Innotech Alpha Imager HP. […] TUNEL assay was performed using Promega fluorescence detection kit and examined using Zeiss LSM 510 META laser-scanning fluorescence microscope with filters 520 and 620 nm. […]

H520 cells = test: MTT assay, H520; assay type: cell-based; details: Homo sapiens, NCI-H520, 48 h
Description: as §2, §3

H1417 = test: Colony formation assay, H1417; assay type: cell-based, human; details: 1.5 μM
Description: as §1
The effect of COH-SR4 was first examined in a NCI panel of cancer cell lines, the results of which indicated good activity of COH-SR4 towards lung cancer (FIG. 78A). […] Values are presented as mean±SD from two separate determinations with eight replicates each (n=16) (FIG. 78B). The COH-SR4 treatment exerted a significant inhibitory effect on the survival of lung cancer cells [IC50: H1417 cells-1.2±0.2 μM, H1618 cells-1.5±0.2 μM, H358 cells-2.1±0.2 μM and H520 cells-2.4±0.3 μM]. […] Following initial screening for the anticancer activity of COH-SR4, the effect of COH-SR4 on clonogenic potential was studied. Standard colony-forming assay was performed and the colonies were counted using Innotech Alpha Imager HP. […] The effect of COH-SR4 on induction of apoptosis was further investigated. […] TUNEL assay was performed using Promega fluorescence detection kit and examined using Zeiss LSM 510 META laser-scanning fluorescence microscope with filters 520 and 620 nm. […]

H-358 and H-520 cells = test: Cell cycle FACS analysis, lung cancer; assay type: cell-based, human
Description: 2×10^5 cells were treated with COH-SR4 (0 μM, 5 μM or 10 μM) for 18 h at 37° C. After treatment, floating and adherent cells were collected, washed with PBS, and fixed with 70% ethanol. On the day of flow analysis, cell suspensions were centrifuged; counted and same numbers of cells were resuspended in 500 μL PBS in flow cytometry tubes. Cells were then incubated with 2.5 μL of RNase (stock 20 mg/mL) at 37° C. for 30 min after which they were treated with 10 μL of propidium iodide (stock 1 mg/mL) solution and then incubated at room temperature for 30 min in the dark. The stained cells were analyzed using the Beckman Coulter Cytomics FC500, Flow Cytometry Analyzer. Results were processed using CXP2.2 analysis software from Beckman Coulter.
In the context of the elevation of GSTs in lung cancer, the impact of COH-SR4 on the catalytic activity of GSTs towards 1-chloro 2,4-dinitro benzene (CDNB), a model substrate used for GST activity was analyzed. GST activity towards 1-chloro 2,4-dinitro benzene (CDNB) and its inhibition by COH-SR4 was performed in 28000×g crude supernatant prepared from H1417, H1618, H520 and H358 cells. The inhibitory effect of COH-SR4 on GST was studied at a fixed concentration of GSH and CDNB (1 mM each) and varying concentrations of inhibitor. The enzymes were pre-incubated with the inhibitor for 5 min at 37° C. prior to the addition of the substrates. […]

## O=C(Nc1cc(Cl)cc(Cl)c1)Nc1cc(Cl)cc(Cl)c1 [COH-SR4, 1,3-bis(3,5-dichlorophenyl) urea]
SK-Mel-5
  colony formation: 22±8%
GST
  total GST activity towards CDNB: inhibited the total GST activity to a significant extent
B16 mouse melanoma tumor
  Akt, ratio COH-SR4 group/Control Group: 0.84
  Bcl2, ratio COH-SR4 group/Control Group: 0.39
  Bim, ratio COH-SR4 group/Control Group: 5.8
  CDK4, ratio COH-SR4 group/Control Group: 0.29
  Cyclin B1, ratio COH-SR4 group/Control Group: 0.32
  Fibronectin, ratio COH-SR4 group/Control Group: 0.22
  Vimentin, ratio COH-SR4 group/Control Group: 0.39
  pAMPK, ratio COH-SR4 group/Control Group: 3.1
  pAkt, ratio COH-SR4 group/Control Group: 0.32
H1417 cells
  IC50: 1.2 ± 0.2 µM
H520 cells
  IC50: 2.4 ± 0.3 µM
H1417
  colony formation: 39±8%
H-358 and H-520 cells
  cell cycle arrest: induced G0/G1 phase arrest in a concentration dependent manner
